Measured values: the NIST ThermoML archive (doi:10.1021/je900444h)
Numbers after ± are expanded uncertainties.

Test: mn = molality of the nth substance listed, in mol/kg
Settings: 101 kPa, Liquid; for mass density: Vibrating tube method; for viscosity: Capillary tube (Ostwald / Ubbelohde) method

CNC(=O)NC [1,3-dimethylurea] + O
Settings | mass density [kg/m3] | viscosity [mPa·s]
298.15 K, m1 = 23.15 | 1068 ± 0.2 | –
303.15 K, m1 = 0.0033 | 995.7 ± 0.1 | 0.8242 ± 0.0093
303.15 K, m1 = 0.0331 | 995.9 ± 0.1 | 0.8316 ± 0.0093
303.15 K, m1 = 0.0995 | 996.4 ± 0.1 | 0.8464 ± 0.0094
303.15 K, m1 = 0.1669 | 997 ± 0.1 | 0.8592 ± 0.0094
303.15 K, m1 = 0.2354 | 997.5 ± 0.1 | 0.8702 ± 0.0094
303.15 K, m1 = 0.3039 | 998.1 ± 0.1 | 0.8753 ± 0.0095
303.15 K, m1 = 0.3387 | 998.3 ± 0.1 | 0.887 ± 0.0095
303.15 K, m1 = 0.4997 | 999.6 ± 0.1 | –
303.15 K, m1 = 0.7491 | 1001.6 ± 0.1 | 0.9652 ± 0.0097
303.15 K, m1 = 1.001 | 1003.6 ± 0.1 | –
303.15 K, m1 = 1.08 | 1004.2 ± 0.1 | –
303.15 K, m1 = 1.5 | 1007.4 ± 0.1 | –
303.15 K, m1 = 1.923 | 1010.5 ± 0.1 | 1.216 ± 0.01
303.15 K, m1 = 2.885 | 1017.1 ± 0.1 | 1.44 ± 0.011
303.15 K, m1 = 4.005 | 1023.8 ± 0.1 | 1.729 ± 0.013
303.15 K, m1 = 5.304 | 1030.6 ± 0.1 | 2.055 ± 0.014
303.15 K, m1 = 6.862 | 1037.4 ± 0.1 | 2.49 ± 0.016
303.15 K, m1 = 8.726 | 1043.8 ± 0.1 | 3.002 ± 0.019
303.15 K, m1 = 11.02 | 1049.8 ± 0.1 | 3.603 ± 0.022
303.15 K, m1 = 15.65 | 1057.8 ± 0.1 | 4.927 ± 0.031
303.15 K, m1 = 23.15 | 1064 ± 0.2 | 7.122 ± 0.043
308.15 K, m1 = 0.4997 | 997.9 ± 0.1 | –
308.15 K, m1 = 0.7491 | 999.8 ± 0.1 | 0.8666 ± 0.0094
308.15 K, m1 = 1.001 | 1001.7 ± 0.1 | –
308.15 K, m1 = 1.08 | 1002.3 ± 0.1 | –
308.15 K, m1 = 1.5 | 1005.4 ± 0.1 | –
308.15 K, m1 = 1.923 | 1008.4 ± 0.1 | 1.079 ± 0.01
308.15 K, m1 = 2.885 | 1014.8 ± 0.1 | 1.271 ± 0.011
308.15 K, m1 = 4.005 | 1021.3 ± 0.1 | 1.511 ± 0.012
308.15 K, m1 = 5.304 | 1027.8 ± 0.1 | 1.778 ± 0.013
308.15 K, m1 = 6.862 | 1034.3 ± 0.1 | 2.135 ± 0.014
308.15 K, m1 = 8.726 | 1040.5 ± 0.1 | 2.545 ± 0.017
308.15 K, m1 = 11.02 | 1046.3 ± 0.1 | 3.056 ± 0.019
308.15 K, m1 = 15.65 | 1054 ± 0.1 | 4.116 ± 0.026
308.15 K, m1 = 23.15 | 1060.1 ± 0.2 | 5.865 ± 0.037
313.15 K, m1 = 0.4997 | 996 ± 0.1 | –
313.15 K, m1 = 0.7491 | 997.9 ± 0.1 | 0.7797 ± 0.0092
313.15 K, m1 = 1.001 | 999.7 ± 0.1 | –
313.15 K, m1 = 1.08 | 1000.3 ± 0.1 | –
313.15 K, m1 = 1.5 | 1003.3 ± 0.1 | –
313.15 K, m1 = 1.923 | 1006.1 ± 0.1 | 0.9649 ± 0.0097
313.15 K, m1 = 2.885 | 1012.3 ± 0.1 | 1.127 ± 0.01
313.15 K, m1 = 4.005 | 1018.6 ± 0.1 | 1.336 ± 0.011
313.15 K, m1 = 5.304 | 1024.9 ± 0.1 | 1.56 ± 0.012
313.15 K, m1 = 6.862 | 1031.1 ± 0.1 | 1.859 ± 0.013
313.15 K, m1 = 8.726 | 1037.1 ± 0.1 | 2.195 ± 0.015
313.15 K, m1 = 11.02 | 1042.8 ± 0.1 | 2.626 ± 0.017
313.15 K, m1 = 15.65 | 1050.2 ± 0.1 | 3.513 ± 0.022
313.15 K, m1 = 23.15 | 1056.1 ± 0.2 | 4.918 ± 0.032
318.15 K, m1 = 5.304 | 1021.8 ± 0.1 | 1.38 ± 0.011
318.15 K, m1 = 6.862 | 1027.8 ± 0.1 | 1.632 ± 0.012
318.15 K, m1 = 8.726 | 1033.6 ± 0.1 | 1.906 ± 0.014
318.15 K, m1 = 11.02 | 1039.1 ± 0.1 | 2.268 ± 0.015
318.15 K, m1 = 15.65 | 1046.3 ± 0.1 | 3.024 ± 0.02
318.15 K, m1 = 23.15 | 1052.1 ± 0.2 | 4.196 ± 0.027
323.15 K, m1 = 5.304 | 1018.6 ± 0.1 | 1.222 ± 0.011
323.15 K, m1 = 6.862 | 1024.5 ± 0.1 | 1.44 ± 0.012
323.15 K, m1 = 8.726 | 1030.1 ± 0.1 | 1.681 ± 0.013
323.15 K, m1 = 11.02 | 1035.4 ± 0.1 | 1.983 ± 0.014
323.15 K, m1 = 15.65 | 1042.4 ± 0.1 | 2.646 ± 0.018
323.15 K, m1 = 23.15 | 1048 ± 0.2 | 3.658 ± 0.024
328.15 K, m1 = 5.304 | 1015.9 ± 0.1 | 1.095 ± 0.01
328.15 K, m1 = 6.862 | 1021 ± 0.1 | 1.293 ± 0.011
328.15 K, m1 = 8.726 | 1026.5 ± 0.1 | 1.492 ± 0.012
328.15 K, m1 = 11.02 | 1031.6 ± 0.1 | 1.76 ± 0.013
328.15 K, m1 = 15.65 | 1038.4 ± 0.1 | 2.333 ± 0.016
328.15 K, m1 = 23.15 | 1043.9 ± 0.2 | 3.212 ± 0.021
333.15 K, m1 = 5.304 | 1012.3 ± 0.1 | 1.024 ± 0.01
333.15 K, m1 = 6.862 | 1017.5 ± 0.1 | 1.164 ± 0.01
333.15 K, m1 = 8.726 | 1022.7 ± 0.1 | 1.343 ± 0.011
333.15 K, m1 = 11.02 | 1027.8 ± 0.1 | 1.564 ± 0.012
333.15 K, m1 = 15.65 | 1034.4 ± 0.1 | 2.061 ± 0.015
333.15 K, m1 = 23.15 | 1039.8 ± 0.2 | 2.818 ± 0.019
